# Assay results published in patent US12122800B2, “Inhibitors of MEK kinase” (Kinnate Biopharma Inc., priority 2022, dated 2024).
# Test system: A375 pERK
# Assay: Cellular assay monitoring phosphorylation of ERK (HTRF phospho-ERK Thr202/Tyr204) in A-375 cells
# Format: cell-based
# Conditions: Homo sapiens, melanoma derived cell line A-375 (BRAF V600 activating mutation), 1 hour incubation with compound
# Procedure: To determine the effect of the MEK inhibitor compounds disclosed herein on cellular MAPK signaling downstream of MEK, an assay monitoring phosphorylation of ERK was used. Melanoma derived cell line A-375, which harbors a BRAF V600 activating mutation was cultured and maintained as specified by the supplier (ATCC: Cat #CRL-1619; American Type Culture Collection; Manassas, VA 20110). Cells were seeded at 8000 cells/well in 24 μL growth media in a 384-well plate and allowed to adhere at 37° C. with 5% CO2 overnight. The following day, compounds were serially diluted into 10-point, 3-fold dilution curves in 384 well plates. Compound was transferred to cell plates using Echo550 such that the final concentration range was 0.508 nM to […] in […] with 0.1% DMSO being used as negative control. Cells were incubated with compounds for 1 hour at 37° C. with […]. Cells were lysed by addition of 8 μL 4× lysis buffer provided with HTRF kit (Advanced phospho-ERK (Thr202/Tyr204) cellular kit; Cisbio; Cat #64AERPEH) plus 1× protease/phosphatase inhibitor cocktail. 20 μL lysate was transferred to HTRF plate followed by 2.5 μL each of anti-ERK1/2-Europium/Terbium Cryptate and anti-phospho-ERK1/2 antibody solutions per manufacturer's instructions and incubated. Specific signal was measured at […] on a Perkin Elmer Envision 2105 and the ratios used to calculate IC50 values within the Dotmatics Knowledge Solutions Studies curve fitting environment (Dotmatics, Bishops Stortford, UK, CM23) and are presented in Table 8.
row,IC50,SMILES
1,10 to 100 nM,"CCP(=O)(CC)c1ccncc1Nc1ccc(I)cc1F [Example 6, 4-(Diethylphosphoryl)-N-(2-fluoro-4-iodophenyl)pyridin-3-amine]"
2,10 to 100 nM,"CC[P@](C)(=O)c1ccncc1Nc1ccc(I)cc1F (single isomer, unassigned) [Example 9]"
3,100 to 1000 nM,"C#Cc1ccc(Nc2cnccc2[P@@](C)(=O)CC)c(F)c1 (single isomer, unassigned) [Example 20]"
4,100 to 1000 nM,"CP(C)(=O)c1ccncc1Nc1ccc(Br)cc1F [Example 10, N-(4-Bromo-2-fluorophenyl)-4-(dimethylphosphoryl)pyridin-3-amine]"
5,100 to 1000 nM,"CCP(=O)(CC)c1ccncc1Nc1ccc(Br)cc1F [Example 11, N-(4-bromo-2-fluorophenyl)-4-(diethylphosphoryl)pyridin-3-amine]"
6,≤ 1000 nM,"CP(C)(=O)c1ccc(F)cc1Nc1ccc(I)cc1F [Example 2, 2-(Dimethylphosphoryl)-5-fluoro-N-(2-fluoro-4-iodophenyl)aniline]"
7,> 10 nM,"CP(C)(=O)c1c(Cl)cncc1Nc1ccc(I)cc1F [Example 13, 5-Chloro-4-(dimethylphosphoryl)-N-(2-fluoro-4-iodophenyl)pyridin-3-amine]"
8,10 to 100 nM,"C#Cc1ccc(Nc2cnccc2P(C)(C)=O)c(F)c1 [Example 14, (3-((4-Ethynyl-2-fluorophenyl)amino)pyridin-4-yl)dimethylphosphine oxide]"
9,≤ 1000 nM,"CP(C)(=O)c1ccc(F)c(F)c1Nc1ccc(I)cc1F [Example 4, 6-(Dimethylphosphoryl)-2,3-difluoro-N-(2-fluoro-4-iodophenyl)aniline]"
10,10 to 100 nM,"C#Cc1ccc(Nc2cncc(F)c2P(C)(C)=O)c(F)c1 [Example 31, 4-(Dimethylphosphoryl)-N-(4-ethynyl-2-fluorophenyl)-5-fluoropyridin-3-amine]"
11,10 to 100 nM,"CP(C)(=O)c1ccncc1Nc1ccc(C2CC2)cc1F [Example 23, N-(4-Cyclopropyl-2-fluorophenyl)-4-(dimethylphosphoryl)pyridin-3-amine]"
12,100 to 1000 nM,"C#Cc1ccc(Nc2cnccc2P2(=O)CCCC2)c(F)c1 [Example 15, 1-(3-((4-Ethynyl-2-fluorophenyl)amino)pyridin-4-yl)phospholane 1-oxide]"
13,100 to 1000 nM,"C#Cc1ccc(Nc2cnccc2P(=O)(CC)CC)c(F)c1 [Example 18, 4-(Diethylphosphoryl)-N-(4-ethynyl-2-fluorophenyl)pyridin-3-amine]"
14,10 to 100 nM,"CP(C)(=O)c1c(Cl)cncc1Nc1ccc(C2CC2)cc1F [Example 32, (3-Chloro-5-((4-cyclopropyl-2-fluorophenyl)amino)pyridin-4-yl)dimethylphosphine oxide]"
15,> 10 nM,"Cc1cncc(Nc2ccc(I)cc2F)c1P(C)(C)=O [Example 30, 4-(Dimethylphosphoryl)-N-(2-fluoro-4-iodophenyl)-5-methylpyridin-3-amine]"
16,100 to 1000 nM,"C#Cc1ccc(Nc2cnccc2[P@](C)(=O)CC)c(F)c1 (single isomer, unassigned) [Example 19]"

row,IC50,SMILES
1,> 10 nM,"CP(C)(=O)c1c(F)cncc1Nc1ccc(I)cc1F [Example 24, 4-(Dimethylphosphoryl)-5-fluoro-N-(2-fluoro-4-iodophenyl)pyridin-3-amine]"
2,10 to 100 nM,"CP(C)(=O)c1ccncc1Nc1ccc(I)cc1 [Example 22, 4-(Dimethylphosphoryl)-N-(4-iodophenyl)pyridin-3-amine]"
3,100 to 1000 nM,"CP(C)(=O)c1cc(F)ncc1Nc1ccc(I)cc1F [Example 21, (2-Fluoro-5-((2-fluoro-4-iodophenyl)amino)pyridin-4-yl)dimethylphosphine oxide]"
4,10 to 100 nM,"CP(C)(=O)c1c(Cl)cncc1Nc1ccc(Br)cc1F [Example 29, (3-((4-Bromo-2-fluorophenyl)amino)-5-chloropyridin-4-yl)dimethylphosphine oxide]"
5,100 to 1000 nM,"CP(C)(=O)c1c(Cl)cncc1Nc1ccc(Br)cc1Cl [Example 28, N-(4-Bromo-2-chlorophenyl)-5-chloro-4-(dimethylphosphoryl)pyridin-3-amine]"
6,10 to 100 nM,"CCP(C)(=O)c1ccncc1Nc1ccc(I)cc1F (centres unmarked) [Example 7, 4-[Ethyl(methyl)phosphoryl]-N-(2-fluoro-4-iodophenyl)pyridin-3-amine]"
7,10 to 100 nM,"CC[P@@](C)(=O)c1ccncc1Nc1ccc(I)cc1F (single isomer, unassigned) [Example 8]"
8,100 to 1000 nM,"CC[P@@](C)(=O)c1ccncc1Nc1ccc(Br)cc1F (single isomer, unassigned) [Example 16]"
9,10 to 100 nM,"CP(C)(=O)c1ccnc(F)c1Nc1ccc(I)cc1F [Example 25, (2-Fluoro-3-((2-fluoro-4-iodophenyl)amino)pyridin-4-yl)dimethylphosphine oxide]"
10,100 to 1000 nM,"CC[P@](C)(=O)c1ccncc1Nc1ccc(Br)cc1F (single isomer, unassigned) [Example 17]"
11,100 to 1000 nM,"O=P1(c2ccncc2Nc2ccc(Br)cc2F)CCCC1 [Example 12, 1-(3-((4-Bromo-2-fluorophenyl)amino)pyridin-4-yl)phospholane 1-oxide]"
12,10 to 100 nM,"CP(C)(=O)c1ccncc1Nc1ccc(I)c(F)c1F [Example 3, N-(2,3-Difluoro-4-iodophenyl)-4-(dimethylphosphoryl)pyridin-3-amine]"
13,> 10 nM,"CP(C)(=O)c1ccncc1Nc1ccc(I)cc1F [Example 1, 4-(Dimethylphosphoryl)-N-(2-fluoro-4-iodophenyl)pyridin-3-amine]"
14,100 to 1000 nM,"CP(C)(=O)c1ccncc1Nc1ccc(Br)cc1Cl [Example 27, N-(4-bromo-2-chlorophenyl)-4-(dimethylphosphoryl) pyridin-3-amine]"
15,10 to 100 nM,"O=P1(c2ccncc2Nc2ccc(I)cc2F)CCCC1 [Example 5, 1-(3-((2-Fluoro-4-iodophenyl)amino)pyridin-4-yl)phospholane 1-oxide]"
16,> 10 nM,"CP(C)(=O)c1c(F)cncc1Nc1ccc(Br)cc1Cl [Example 26, N-(4-bromo-2-chlorophenyl)-4-(dimethylphosphoryl)-5-fluoropyridin-3-amine]"
